This is an account of results in ChEMBL document CHEMBL1177779, “Development of dual functional SPECT/fluorescent probes for imaging cerebral beta-amyloid plaques” (Bioorg Med Chem Lett, 2010).

Series [1] has as its system Brain. The series can be described thus: Biodistribution in ddY mouse brain assessed per gram of tissue at 7.77 KBq, iv after 30 mins by gamma counting. As to conditions: in vivo, 0.5 h. Type of series: ADME, organism-based.
For series [2], the system named is Kidney. The series can be described thus: Biodistribution in ddY mouse kidney assessed per gram of tissue at 7.77 KBq, iv after 60 mins by gamma counting. In kind it is ADME, organism-based. As to conditions: in vivo, 1 h.
The subject of series [3] is Pancreas. In words: Biodistribution in ddY mouse pancreas assessed per gram of tissue at 7.77 KBq, iv after 2 mins by gamma counting. As to conditions: in vivo. Type of series: ADME, organism-based.
The subject of series [4] is Spleen. The series can be described thus: Biodistribution in ddY mouse spleen assessed per gram of tissue at 7.77 KBq, iv after 2 mins by gamma counting. In kind it is ADME, organism-based. As to conditions: in vivo.
For series [5], the system named is Heart. The series can be described thus: Biodistribution in ddY mouse heart assessed per gram of tissue at 7.77 KBq, iv after 60 mins by gamma counting. In kind it is ADME, organism-based. As to conditions: in vivo, 1 h.
The test system of series [6] is Pancreas. In words: Biodistribution in ddY mouse pancreas assessed per gram of tissue at 7.77 KBq, iv after 60 mins by gamma counting. Type of series: ADME, organism-based. Conditions: in vivo, 1 h.
In series [7] the test system is Intestine. The series can be described thus: Biodistribution in ddY mouse intestine assessed per gram of tissue at 7.77 KBq, iv after 30 mins by gamma counting. In kind it is ADME, organism-based. Conditions: in vivo, 0.5 h.
Series [8] deals with Blood. The series can be described thus: Biodistribution in ddY mouse blood assessed per gram of tissue at 7.77 KBq, iv after 30 mins by gamma counting. Type of series: ADME, organism-based. As to conditions: in vivo, 0.5 h.
Series [9] relates to Liver. The series can be described thus: Biodistribution in ddY mouse liver assessed per gram of tissue at 7.77 KBq, iv after 2 mins by gamma counting. In kind it is ADME, organism-based. As to conditions: in vivo.
The test system of series [10] is Blood. The series can be described thus: Biodistribution in ddY mouse blood assessed per gram of tissue at 7.77 KBq, iv after 60 mins by gamma counting. Type of series: ADME, organism-based. As to conditions: in vivo, 1 h.
Series [11] has as its system Spleen. In words: Biodistribution in ddY mouse spleen assessed per gram of tissue at 7.77 KBq, iv after 30 mins by gamma counting. Type of series: ADME, organism-based. As to conditions: in vivo, 0.5 h.
Series [12] concerns Kidney. The series can be described thus: Biodistribution in ddY mouse kidney assessed per gram of tissue at 7.77 KBq, iv after 30 mins by gamma counting. In kind it is ADME, organism-based. As to conditions: in vivo, 0.5 h.
The test system of series [13] is Stomach. In words: Biodistribution in ddY mouse stomach assessed per organ at 7.77 KBq, iv after 30 mins by gamma counting. In kind it is ADME, organism-based. As to conditions: in vivo, 0.5 h.
The subject of series [14] is Liver. The series can be described thus: Biodistribution in ddY mouse liver assessed per gram of tissue at 7.77 KBq, iv after 10 mins by gamma counting. As to conditions: in vivo. In kind it is ADME, organism-based.
The subject of series [15] is Kidney. The series can be described thus: Biodistribution in ddY mouse kidney assessed per gram of tissue at 7.77 KBq, iv after 2 mins by gamma counting. Type of series: ADME, organism-based. Conditions: in vivo.
Series [16] relates to Stomach. In words: Biodistribution in ddY mouse stomach assessed per organ at 7.77 KBq, iv after 10 mins by gamma counting. In kind it is ADME, organism-based. As to conditions: in vivo.
The test system of series [17] is Blood. In words: Biodistribution in ddY mouse blood assessed per gram of tissue at 7.77 KBq, iv after 2 mins by gamma counting. In kind it is ADME, organism-based. As to conditions: in vivo.
Series [18] deals with Heart. In words: Biodistribution in ddY mouse heart assessed per gram of tissue at 7.77 KBq, iv after 2 mins by gamma counting. Type of series: ADME, organism-based. Conditions: in vivo.
The subject of series [19] is Kidney. In words: Biodistribution in ddY mouse kidney assessed per gram of tissue at 7.77 KBq, iv after 10 mins by gamma counting. In kind it is ADME, organism-based. Conditions: in vivo.
Series [20] has as its system Intestine. In words: Biodistribution in ddY mouse intestine assessed per gram of tissue at 7.77 KBq, iv after 60 mins by gamma counting. In kind it is ADME, organism-based. Conditions: in vivo, 1 h.
For series [21], the system named is Spleen. The series can be described thus: Biodistribution in ddY mouse spleen assessed per gram of tissue at 7.77 KBq, iv after 60 mins by gamma counting. As to conditions: in vivo, 1 h. Type of series: ADME, organism-based.
For series [22], the system named is Brain. In words: Biodistribution in ddY mouse brain assessed per gram of tissue at 7.77 KBq, iv after 2 mins by gamma counting. Type of series: ADME, organism-based. As to conditions: in vivo.
The subject of series [23] is Brain. The series can be described thus: Biodistribution in ddY mouse brain assessed per gram of tissue at 7.77 KBq, iv after 10 mins by gamma counting. In kind it is ADME, organism-based. Conditions: in vivo.
Series [24] relates to Heart. In words: Biodistribution in ddY mouse heart assessed per gram of tissue at 7.77 KBq, iv after 10 mins by gamma counting. Type of series: ADME, organism-based. As to conditions: in vivo.
Series [25] deals with Spleen. The series can be described thus: Biodistribution in ddY mouse spleen assessed per gram of tissue at 7.77 KBq, iv after 10 mins by gamma counting. In kind it is ADME, organism-based. Conditions: in vivo.
Series [26] deals with Liver. The series can be described thus: Biodistribution in ddY mouse liver assessed per gram of tissue at 7.77 KBq, iv after 30 mins by gamma counting. Type of series: ADME, organism-based. As to conditions: in vivo, 0.5 h.
The subject of series [27] is Pancreas. In words: Biodistribution in ddY mouse pancreas assessed per gram of tissue at 7.77 KBq, iv after 10 mins by gamma counting. In kind it is ADME, organism-based. Conditions: in vivo.
In series [28] the test system is Intestine. In words: Biodistribution in ddY mouse intestine assessed per gram of tissue at 7.77 KBq, iv after 2 mins by gamma counting. As to conditions: in vivo. Type of series: ADME, organism-based.
Series [29] has as its system Stomach. The series can be described thus: Biodistribution in ddY mouse stomach assessed per organ at 7.77 KBq, iv after 60 mins by gamma counting. In kind it is ADME, organism-based. As to conditions: in vivo, 1 h.
Series [30] relates to Liver. In words: Biodistribution in ddY mouse liver assessed per gram of tissue at 7.77 KBq, iv after 60 mins by gamma counting. Conditions: in vivo, 1 h. In kind it is ADME, organism-based.
Series [31] concerns Stomach. The series can be described thus: Biodistribution in ddY mouse stomach assessed per organ at 7.77 KBq, iv after 2 mins by gamma counting. In kind it is ADME, organism-based. Conditions: in vivo.
For series [32], the system named is Intestine. In words: Biodistribution in ddY mouse intestine assessed per gram of tissue at 7.77 KBq, iv after 10 mins by gamma counting. In kind it is ADME, organism-based. As to conditions: in vivo.
Series [33] concerns Blood. The series can be described thus: Biodistribution in ddY mouse blood assessed per gram of tissue at 7.77 KBq, iv after 10 mins by gamma counting. Type of series: ADME, organism-based. As to conditions: in vivo.
Series [34] concerns Brain. In words: Biodistribution in ddY mouse brain assessed per gram of tissue at 7.77 KBq, iv after 60 mins by gamma counting. Conditions: in vivo, 1 h. Type of series: ADME, organism-based.
In series [35] the test system is Pancreas. The series can be described thus: Biodistribution in ddY mouse pancreas assessed per gram of tissue at 7.77 KBq, iv after 30 mins by gamma counting. In kind it is ADME, organism-based. As to conditions: in vivo, 0.5 h.
Series [36] deals with Heart. In words: Biodistribution in ddY mouse heart assessed per gram of tissue at 7.77 KBq, iv after 30 mins by gamma counting. In kind it is ADME, organism-based. As to conditions: in vivo, 0.5 h.
Series [37] is described as follows: Displacement of [125I]IMPY from amyloid beta (1-42) after 3 hrs by gamma counting. On the technique in general: Displacement assays read how much labelled ligand stays bound in the presence of the test substance.

As for `CC1=CC(C)=[N+]2C1=Cc1ccc(/C=C/c3ccc(-c4ccc([125I])cc4)s3)n1[B-]2(F)F`, the Drug uptake with Brain [1] came to 0.14 % ID/g; in the series with Kidney [2] it was 4.43 % ID/g; in the series on Pancreas [3], 1.19 % ID/g; in the series with Spleen [4], 16.12 % ID/g; with Heart [5], 2.3 % ID/g; in the series on Pancreas [6], 0.92 % ID/g. Further, the Drug uptake in the series on Intestine [7] is given as 1.91 % ID/g; in the series with Blood [8], 3.09 % ID/g; in the series on Liver [9], 35.51 % ID/g; in the series with Blood [10], 2.44 % ID/g; with Spleen [11], 28.21 % ID/g; in the series on Kidney [12], 4.46 % ID/g. In addition, the Drug uptake amounted to 4.79 %ID in the series on Stomach [13]; 46.02 % ID/g in the series with Liver [14]; 5.39 % ID/g with Kidney [15]; 4.73 %ID with Stomach [16]; 11.67 % ID/g in the series on Blood [17]; 5.59 % ID/g in the series with Heart [18]. Also, the Drug uptake worked out at 4.79 % ID/g in the series with Kidney [19]; 3.04 % ID/g in the series with Intestine [20]; 21.52 % ID/g in the series on Spleen [21]; 0.4 % ID/g with Brain [22]; 0.19 % ID/g in the series on Brain [23]; 2.95 % ID/g in the series with Heart [24]. Moreover, the Drug uptake with Spleen [25] was found to be 26.9 % ID/g; in the series with Liver [26], 45.87 % ID/g; in the series with Pancreas [27], 0.74 % ID/g; with Intestine [28], 0.48 % ID/g; in the series on Stomach [29] it was 5.5 %ID; in the series on Liver [30], 45.78 % ID/g. The Drug uptake in the series on Stomach [31] was 1.4 %ID; in the series with Intestine [32], 0.93 % ID/g; in the series with Blood [33], 4.09 % ID/g; in the series with Brain [34], 0.14 % ID/g; in the series on Pancreas [35], 0.72 % ID/g; in the series on Heart [36], 2.31 % ID/g.

In general, Ki refers to the equilibrium dissociation constant of an inhibitor or competing ligand from its target. A high value points to lower affinity. For `CC1=CC(C)=[N+]2C1=Cc1ccc(/C=C/c3ccc(-c4ccc(I)cc4)s3)n1[B-]2(F)F`, in series [37], the Ki was 108 nM and the inhibition entry is “Dose-dependent effect”.
